Assay results from patent US4568693A, “N-Naphthoylglycine derivatives” (Ayerst, McKenna & Harrison, Inc., priority 1981, dated 1986).

Key:
aldose reductase = target: T1, aldose reductase (Bos taurus, UniProt P16116); test: in vitro aldose reductase inhibition (modified Hayman and Kinoshita procedure); format: biochemical, bovine; settings: for inhibition at 10 µM: 10^-5 molar, read-out: % Inhibition at Different Molar Concentration (in vitro), 10^-5; for inhibition at 1 µM: 10^-6 molar, read-out: % Inhibition at Different Molar Concentration (in vitro), 10^-6; for inhibition at 0.1 µM: 10^-7 molar, read-out: % Inhibition at Different Molar Concentration (in vitro), 10^-7
T1 construct: the preparation of the enzyme from bovine lens; from tissue; host or cells: bovine lens
Excerpt: In the present case the procedure of Hayman and Kinoshita is modified in that the final chromatography step is omitted in the preparation of the enzyme from bovine lens.

[1] = test system: accumulation of dulcitol in the lenses; test: galactosemic rats, dulcitol accumulation in the lens; format: in vivo, rat (Sprague-Dawley); settings: 4 days, vs untreated galactosemic rats
Excerpt: The aldose reductase inhibiting property of the compounds of this invention and the utilization of the compounds in preventing, diminishing and alleviating diabetic complications are demonstrable in experiments using galactosemic rats, see Dvornik et al., cited above. Such experiments are exemplified hereinbelow after the listing of the following general comments pertaining to these experiments:
(a) Four or more groups of six male rats, 50-70 g, Sprague-Dawley strain, were used. The first group, the control group, was fed a mixture of laboratory chow (rodent laboratory chow, Purina) and glucose at 20% (w/w %) concentration. The untreated galactosemic group was fed a similar diet in which galactose is substituted for glucose. The third group was fed a diet prepared by mixing a given amount of the test compound with the galactose containing diet. The concentration of galactose in the diet of the treated groups was the same as that for the untreated galactosemic group.
(b) After four days, the animals were killed by decapitation. The eyeballs were removed and punctured with a razor blade; the freed lenses were rolled gently on filter paper and weighed. The sciatic nerves were dissected as completely as possible and weighed. Both tissues were frozen and can be kept up to two weeks before being analyzed for dulcitol.
(c) The polyol determination was performed by a modification of the procedure of M. Kraml and L. Cosyns, Clin. Biochem., 2, 373 (1969). Only two minor reagent changes were made: (a) The rinsing mixture was an aqueous 5% (w/v) trichloroacetic acid solution and (b) the stock solution was prepared by dissolving 25 mg of dulcitol in 100 ml of an aqueous trichloroacetic acid solution. [N.B.: For each experiment the average value found in the tissue from rats fed the glucose diet was subtracted from the individual values found in the corresponding rat tissue to obtain the amount of polyol accumulated].
The figures under L and N represent the percentage decrease of dulcitol accumulation in the tissues of the lens and sciatic nerve, respectively, for treated rats as compared to untreated rats.

Row | SMILES | inhibition at 10 µM (aldose reductase) [%] | inhibition at 1 µM (aldose reductase) [%] | inhibition at 0.1 µM (aldose reductase) [%] | percentage decrease of dulcitol accumulation, lens (L) ([1]; 162 mg/kg/day in diet) [%] | percentage decrease of dulcitol accumulation, lens (L) ([1]; 52 mg/kg/day in diet) [%] | percentage decrease of dulcitol accumulation, lens (L) ([1]; 26 mg/kg/day in diet) [%] | percentage decrease of dulcitol accumulation, lens (L) ([1]; 144 mg/kg/day in diet) [%]
1 | COC(=O)CN(C)C(=S)c1cccc2c(Br)cccc12 [Example 3, N-[(5-Bromo-1-naphthalenyl)thioxomethyl]-N-methylglycine Methyl Ester] | 8 |  |  |  |  |  | 
2 | CN(CC(=O)O)C(=S)c1cccc2c(C#N)cccc12 [Example 38, N-[(5-cyano-1-naphthalenyl)thioxomethyl]-N-methylglycine] | 89 | 79 | 32 |  |  |  | 
3 | CN(CC(=O)O)C(=S)c1cccc2c([N+](=O)[O-])cccc12 [Example 39, N-[(5-nitro-1-naphthalenyl)thioxomethyl]-N-methylglycine] | 91 | 83 | 43 |  |  |  | 
4 | Cc1cccc2c(C(=S)N(C)CC(=O)O)cccc12 [Example 36, N-[(5-methyl-1-naphthalenyl)thioxomethyl]-N-methylglycine] | 89 | 74 | 26 |  |  |  | 
5 | CN(CC(=O)O)C(=S)c1cccc2ccccc12 [Example 43, N--((1naphthalenyl)thioxomethyl)-N--methylglycine] | 85 | 51 | 13 |  |  |  | 
6 | COc1ccc2c(C(=S)N(C)CC(=O)O)cccc2c1Br [Example 41, N-[(5-bromo-6-methoxy-1-naphthalenyl)thioxomethyl]-N-methylglycine] | 99 | 91 | 72 | 34 |  |  | 
7 | CN(CC(=O)O)C(=S)c1ccc(Br)c2ccccc12 [Example 33, N-[(4-bromo-1-naphthalenyl)thioxomethyl]-N-methylglycine] | 91 | 77 | 32 |  |  |  | 
8 | COc1ccc2c(C(=S)N(C)CC(=O)O)cccc2c1C#N [Example 48, N-[(5-cyano-6-methoxy-1-naphthalenyl)thioxomethyl]-N-methylglycine] | 98 | 93 | 74 |  |  |  | 
9 | COc1ccc2c(C(=S)N(C)CC(=O)O)cccc2c1I [Example 47, N-[(5-iodo-6-methoxy-1-naphthalenyl)thioxomethyl]-N-methylglycine] | 98 | 95 | 72 |  |  |  | 
10 | CN(CC(=O)O)C(=S)c1cccc2c(Cl)cc(Cl)cc12 [Example 46, N-[(5,7-dichloro-1-naphthalenyl)thioxomethyl]-N-methylglycine] | 88 | 75 | 29 |  | 29 |  | 
11 | COc1ccc2c(C(=S)N(C)CC(=O)O)cccc2c1C(F)(F)F [Example 52, N-[[5-(trifluoromethyl)-6-methoxy-1-naphthalenyl]thioxomethyl]-N-methylglycine] |  |  |  |  |  | 15 | 
12 | CN(CC(=O)O)C(=S)c1ccc(Cl)c2ccccc12 [Example 44, N-[(4-chloro-1-naphthalenyl)thioxomethyl]-N-methylglycine] | 88 | 73 | 25 |  |  |  | 
13 | COc1ccc2c(C(=S)N(C)CC(=O)O)ccc(OC)c2c1C(F)(F)F [CH3, H, 4-CH3 O, 5-CF3,6-CH3 O, N-[[4,6-dimethoxy-5-(trifluoromethyl)-1-naphthalenyl]thioxomethyl]-N-methylglycine] |  |  |  |  |  |  | 33
14 | CCCCCOc1ccc2c(C(=S)N(C)CC(=O)O)cccc2c1Br [Example 37, N-[(5-bromo-6-pentyloxy-1-naphthalenyl)thioxomethyl]-N-methylglycine] | 93 | 91 | 55 |  |  |  | 
15 | COc1c(Cl)cc(C(=S)NCC(=O)O)c2ccccc12 [Example 32 (H, H, 3-Cl, 4-CH3 O), N-[(3-chloro-4-methoxy-1-naphthalenyl)thioxomethyl]glycine] | 61 | 16 |  |  |  |  | 
16 | COc1cccc2c(C(=S)N(C)CC(=O)O)cccc12 [Example 35, N-[(5-methoxy-1-naphthalenyl)thioxomethyl]-N-methylglycine] | 83 | 64 | 17 |  |  |  | 
17 | COCCCOc1ccc2c(C(=S)N(C)CC(=O)O)cccc2c1Br [Example 49, N-[[5-bromo-6-(3-methoxy-propoxy)-1-naphthalenyl]thioxomethyl]-N-methylglycine] | 92 | 87 | 38 |  |  |  | 
18 | Cc1ccc2c(C(=S)N(C)CC(=O)O)cccc2c1Br [Example 42, N-[(5-bromo-6-methyl-1-naphthalenyl)thioxomethyl]-N-methylglycine] | 92 | 88 | 55 |  |  |  | 
19 | CN(CC(=O)O)C(=S)c1cccc2cccc(Br)c12 [Example 34, N-[(8-bromo-1-naphthalenyl)thioxomethyl]-N-methylglycine] | 88 | 75 | 24 |  |  |  | 

Continued, in another order:

Row | inhibition at 10 µM (aldose reductase) [%] | inhibition at 1 µM (aldose reductase) [%] | inhibition at 0.1 µM (aldose reductase) [%] | SMILES | percentage decrease of dulcitol accumulation, lens (L) ([1]; 162 mg/kg/day in diet) [%] | percentage decrease of dulcitol accumulation, lens (L) ([1]; 52 mg/kg/day in diet) [%] | percentage decrease of dulcitol accumulation, lens (L) ([1]; 26 mg/kg/day in diet) [%] | percentage decrease of dulcitol accumulation, lens (L) ([1]; 144 mg/kg/day in diet) [%]
20 | 86 | 69 | 20 | O=C(O)CN(Cc1ccccc1)C(=S)c1cccc2c(Br)cccc12 [Example 59, N-[(5-bromo-1-naphthalenyl)thioxomethyl]-N-(phenylmethyl)glycine] |  |  |  | 
21 | 91 | 72 | 21 | CC(C)c1cccc2c(C(=S)N(C)CC(=O)O)cccc12 [Example 51, N-[[5-(1-methylethyl)-1-naphthalenyl]thioxomethyl]-N-methylglycine] |  |  |  | 
22 | 94 | 93 | 60 | COc1ccc2c(C(=O)N(C)CC(=O)O)cccc2c1C(F)(F)F [N-[[5-(trifluoromethyl)-6-methoxy-1-naphthalenyl]carbonyl]-N-methylglycine] |  |  |  | 
23 | 92 | 77 | 27 | C=CCN(CC(=O)O)C(=S)c1cccc2c(Br)cccc12 [Example 56, N-[(5-bromo-1-naphthalenyl)thioxomethyl]-N-(2-propylene)glycine] |  |  |  | 
24 | 54 | 14 |  | O=C(O)CNC(=S)c1cccc2c(Br)cccc12 [Example 54, N-[(5-bromo-1-naphthalenyl)thioxomethyl]glycine] |  |  |  | 
25 | 91 | 70 | 19 | CCCN(CC(=O)O)C(=S)c1cccc2c(Br)cccc12 [Example 55, N-[(5-bromo-1-naphthalenyl)thioxomethyl]-N-propylglycine] |  |  |  | 
26 | 88 | 44 | 4 | CN(CC(=O)O)C(=S)c1cccc2c(Br)c(OCc3ccc(Cl)cc3)ccc12 [Example 53a, N-[[5-bromo-6-(4-chlorophenylmethoxy)-1-naphthalenyl]thioxomethyl]-N-methylglycine] |  |  |  | 
27 | 86 | 65 | 19 | CCCCN(CC(=O)O)C(=S)c1cccc2c(Br)cccc12 [Example 58, N-[(5-bromo-1-naphthalenyl)thioxomethyl]-N-butylglycine] |  |  |  | 
28 | 86 | 37 | 11 | CN(CC(=O)O)C(=S)c1cccc2c(Br)c(OCc3cccc(C(F)(F)F)c3)ccc12 [Example 53, N-[[5-bromo-6-[3-(trifluoromethyl)phenylmethoxy]-1-naphthalenyl]thioxomethyl]-N-methylglycine] |  |  |  | 
29 | 64 | 21 |  | CN(CC(=O)O)C(=O)c1cccc2c(Br)cccc12 [N-[(5-Bromo-1-naphthalenyl)carbonyl]-N-methylglycine] |  |  |  | 
30 | 92 | 74 | 19 | C=C(C)c1cccc2c(C(=S)N(C)CC(=O)O)cccc12 [Example 50, N-[[5-(1-methylethenyl)-1-naphthalenyl]thioxomethyl]-N-methylglycine] |  |  |  | 
31 | 85 | 72 | 24 | CCN(CC(=O)O)C(=S)c1cccc2c(Br)cccc12 [Example 57, N-[(5-bromo-1-naphthalenyl)thioxomethyl]-N-ethylglycine] |  |  |  | 
